This passage reports inhibition results from PubChem BioAssay AID403 (SGCOxCompounds, 2006).

Receptor-type tyrosine-protein phosphatase eta (Homo sapiens), sequence (Q12913 whole entry, looked up): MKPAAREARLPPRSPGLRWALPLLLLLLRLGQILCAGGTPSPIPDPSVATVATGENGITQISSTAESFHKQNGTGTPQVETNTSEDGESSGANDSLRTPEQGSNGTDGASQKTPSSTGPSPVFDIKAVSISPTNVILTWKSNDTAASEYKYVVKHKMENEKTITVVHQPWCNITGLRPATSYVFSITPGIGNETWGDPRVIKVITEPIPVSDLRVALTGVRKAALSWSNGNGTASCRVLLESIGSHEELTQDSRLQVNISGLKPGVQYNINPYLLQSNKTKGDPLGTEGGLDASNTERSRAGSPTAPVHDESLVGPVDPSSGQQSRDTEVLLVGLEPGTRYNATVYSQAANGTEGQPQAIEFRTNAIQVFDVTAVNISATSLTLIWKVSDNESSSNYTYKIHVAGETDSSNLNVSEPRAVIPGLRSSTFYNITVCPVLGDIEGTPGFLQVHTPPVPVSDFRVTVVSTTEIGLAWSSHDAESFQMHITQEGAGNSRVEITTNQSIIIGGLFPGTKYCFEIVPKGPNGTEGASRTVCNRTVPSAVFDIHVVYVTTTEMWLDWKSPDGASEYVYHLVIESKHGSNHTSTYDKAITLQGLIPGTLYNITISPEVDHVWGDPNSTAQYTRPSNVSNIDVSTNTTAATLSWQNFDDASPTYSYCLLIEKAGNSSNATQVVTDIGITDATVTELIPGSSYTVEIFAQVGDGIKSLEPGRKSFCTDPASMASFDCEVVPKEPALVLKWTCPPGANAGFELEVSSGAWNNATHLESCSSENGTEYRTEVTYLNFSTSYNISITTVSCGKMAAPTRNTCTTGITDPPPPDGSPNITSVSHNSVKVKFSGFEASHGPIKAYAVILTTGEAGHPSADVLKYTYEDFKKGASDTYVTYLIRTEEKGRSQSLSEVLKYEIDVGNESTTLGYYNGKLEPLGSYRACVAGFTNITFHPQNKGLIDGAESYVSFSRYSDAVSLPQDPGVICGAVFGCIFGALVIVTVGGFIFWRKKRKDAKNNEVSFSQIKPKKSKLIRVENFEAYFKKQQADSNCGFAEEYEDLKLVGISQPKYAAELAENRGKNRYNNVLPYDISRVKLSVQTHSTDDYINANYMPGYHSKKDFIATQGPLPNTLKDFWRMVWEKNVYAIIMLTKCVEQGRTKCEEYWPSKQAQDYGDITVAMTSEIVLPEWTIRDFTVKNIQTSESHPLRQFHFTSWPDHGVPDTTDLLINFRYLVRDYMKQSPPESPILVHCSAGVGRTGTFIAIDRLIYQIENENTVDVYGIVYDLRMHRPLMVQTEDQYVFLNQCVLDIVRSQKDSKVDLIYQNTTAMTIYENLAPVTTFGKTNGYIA

This assay addresses Receptor-type tyrosine-protein phosphatase eta (Homo sapiens) (UniProt Q12913). The assay can be described thus: PTPRJ phosphatase inhibitors, biochemical, human, DiFMUP fluorescence (AID 403). Conditions: recombinant PTPRJ, 25 C, at 50 µM, enzyme 0.05 ng/mL, DTT 5 mM, active compounds read high.
As usually defined, the inhibition is the percentage by which the read-out fell short of the control. `O=C(O)c1ccc(O)c(N2C(=O)Nc3ccccc3N2O)c1`: the inhibition is 82%.

`OO.OO.[K+].[O]=[V].c1ccc(-c2ccccn2)nc1`: the inhibition is 98%.

`O=C([O-])c1ccccn1.OO.OO.[K+].[K+].[O]=[V]`: the inhibition is 100%.

On to `O=C(O)c1ccc(O)c(C=Nc2ccc3oc(-c4ccccc4)nc3c2)c1`, for which the inhibition is 52%.

In the case of `O=C(O)c1ccc(O)cn1.OO.[O]=[V]`, the inhibition was 92%.

For `O=C1NC(=S)S/C1=C\C=C\c1ccc([N+](=O)[O-])o1`, the inhibition is 50%.

As for `CN(N=O)c1ccc(O)c(O)c1`, the inhibition was 97%.

In the case of `CC(C)(c1ccc(NS(=O)(=O)C(F)(F)F)cc1)c1ccc(C(C)(C)c2ccc(NS(=O)(=O)C(F)(F)F)cc2)cc1`, the inhibition was 66%.

`O=C(O)c1ccc([O-])cn1.OO.OO.[K+].[K+].[O]=[V]`: the inhibition was 99%.

`Cc1ccc(N=Cc2cc(C(=O)O)ccc2O)c(O)c1`: the inhibition was 55%.

`Cc1c(Cl)c(C)c([N+](=O)[O-])c(O)c1C=Nc1ccc(O)cc1C(=O)O`: the inhibition is 95%.

Take `COc1ccc(-c2nc3cc(N=Cc4cc(C(=O)O)ccc4O)ccc3o2)cc1`: the inhibition was 67%.

`[NH-]CO.[NH-]CO.[NH-]CO.[NH-]CO.[O]=[V][O][V]=[O]`: the inhibition is 100%.
